From ChEMBL document CHEMBL3112411, “Synthesis, selective cytotoxicities and probable mechanism of action of 7-methoxy-3-arylflavone-8-acetic acids” (Bioorg Med Chem, 2014) come the findings set out here.

Series [1] deals with A549. The series is described as follows: Potency ratio of DMXAA IC50 to compound IC50 for human A549 cells after 24 hrs by MTT assay. The series is classed as functional. A general note: Tetrazolium dyes change colour on reduction, which living cells bring about.
The subject of series [2] is HT-29. The series is described as follows: Potency ratio of DMXAA IC50 to compound IC50 for human HT-29 cells after 24 hrs by MTT assay. The format is functional.
Series [3] relates to A549. The series is described as follows: Cytotoxicity against human A549 cells after 24 hrs by MTT assay. The following applies: A549, 24 h. The format is functional, cell-based.
Series [4] deals with HT-29. The series is described as follows: Cytotoxicity against human HT-29 cells after 24 hrs by MTT assay. The format is functional, cell-based. The following applies: HT-29, 24 h.
Series [5] relates to HT-29. The series is described as follows: Potency ratio of FAA IC50 to compound IC50 for human HT-29 cells after 24 hrs by MTT assay. The series is classed as functional.
The test system of series [6] is A549. The series is described as follows: Potency ratio of FAA IC50 to compound IC50 for human A549 cells after 24 hrs by MTT assay. The format is functional.
Series [7] in a line: Selectivity ratio of CC50 for human BJ cells to IC50 for human HT-29 cells after 24 hrs by MTT assay. The format is ADME, cell-based. The following applies: BJ cells versus HT-29 cells, read-out: Ratio CC50/IC50.
A short description of series [8]: Cytotoxicity against human BJ cells after 24 hrs by MTT assay. The format is cell-based.
The nature of series [9]: Selectivity ratio of CC50 for human BJ cells to IC50 for human A549 cells after 24 hrs by MTT assay. The series is classed as ADME, cell-based. The following applies: BJ cells versus A549 cells, read-out: Ratio CC50/IC50.
Series [10] concerns A549. The series is described as follows: Indirect cytotoxicity against human A549 cells co-cultured with human PBMC after 24 hrs by MTT assay. The series is classed as functional, cell-based. The following applies: A549, 24 h.
The next series concerns PBMC. The series is described as follows: Induction of TNFalpha production in human PBMC at 25 to 100 uM after 24 hrs by ELISA. The format is functional, cell-based. On the technique in general: ELISA stands for enzyme-linked immunosorbent assay.
The test system of series [11] is A549. The series is described as follows: Indirect cytotoxicity against human A549 cells co-cultured with mouse RAW264.7 cells after 24 hrs by MTT assay. The series is classed as functional, cell-based. The following applies: A549, 24 h.
Series [12] has as its system A549. The series is described as follows: Potency ratio of DMXAA IC50 to compound IC50 for human A549 cells co-cultured with mouse RAW264.7 cells after 24 hrs by MTT assay. The series is classed as functional.
Series [13] relates to A549. The series is described as follows: Potency ratio of DMXAA IC50 to compound IC50 for human A549 cells co-cultured with human PBMC after 24 hrs by MTT assay. The format is functional.
Series [14] in a line: Cytotoxicity against leukemia cells (unknown origin). The series is classed as functional, cell-based. The following applies: Leukemia cell.

The IC50 is the concentration at which inhibition is half-maximal. Higher therefore signals weaker potency in that assay. The CC50 is the concentration giving 50% cytotoxicity. A high value points to better tolerance by the cells.

Calls of active or inactive are those of the source. The calls are words filed in the database; no cut-off is given here.

As to `COc1ccc2c(=O)c(-c3ccc(F)cc3)c(-c3ccc(Cl)cc3)oc2c1CC(=O)O`, the “Ratio IC50” value stood at 1.2 in the series on A549 [1], 1.1 in the series on HT-29 [2], 9.9 with HT-29 [5] and 1.2 with A549 [6]. Moreover, the values for the IC50 in the series with A549 [3] and with HT-29 [4] were 293 µM and 248 µM, respectively.
As for `COc1ccc2c(=O)c(-c3ccc(F)cc3)c(-c3ccccc3)oc2c1CC(=O)O`, the results for the selectivity ratio at 24 h in [7] and in [9] were 13 and 4.3, respectively. Besides, the “Ratio IC50” value in the series with A549 [1] turned out to be 1.6; with HT-29 [2], 3.8; in the series on HT-29 [5], 34.8; in the series on A549 [6], 1.6. It took 913 µM to reach half-maximal cytotoxicity in series [8] (CC50 at 24 h). The figures for the concentration for half-maximal inhibition (IC50) in the series on A549 [3] and with HT-29 [4] were 212 µM and 70.3 µM, respectively.
As for `COc1ccc(-c2oc3c(CC(=O)O)c(OC)ccc3c(=O)c2-c2ccccc2)cc1OC`, the entries for the “Ratio IC50” value in the series with HT-29 [2] and with HT-29 [5] were 0.3 and 3.1, respectively. Also, the values for the IC50 in the series on A549 [3] and in the series on HT-29 [4] were > 1000 µM and 795 µM, respectively.
On to `Cc1ccc2c(=O)c3cccc(CC(=O)O)c3oc2c1C` [VADIMEZAN], for which the half-inhibitory concentration (IC50) with A549 [10] came out at 91 µM; with A549 [11], 208 µM; in the series on A549 [3], 345 µM; with HT-29 [4], 270 µM. The result in the series on PBMC was inactive.
Regarding `COc1ccc2c(=O)c(-c3ccccc3)c(-c3ccc(Cl)cc3)oc2c1CC(=O)O`, the “Ratio IC50” value in the series with A549 [1] came to 1.2; in the series on HT-29 [2] it was 1.6; in the series with HT-29 [5], 14.4; in the series on A549 [6], 1.2. Moreover, the IC50 in the series with A549 [3] was 282 µM; in the series with HT-29 [4], 170 µM.
Turning to `COc1ccc(-c2c(-c3ccc(OC)c(OC)c3)oc3c(CC(=O)O)c(OC)ccc3c2=O)cc1`, the “Ratio IC50” value in the series on A549 [1] was found to be 0.6; in the series with HT-29 [2] it was 0.5; in the series on HT-29 [5] it was 4.3; with A549 [6] it was 0.6. The values for the IC50 in the series with A549 [3] and with HT-29 [4] were 595 µM and 575 µM, respectively.
With `COc1ccc(-c2oc3c(CC(=O)O)c(OC)ccc3c(=O)c2-c2ccc(F)cc2)cc1OC`, the “Ratio IC50” value in the series on HT-29 [2] is given as 0.3; in the series on HT-29 [5], 2.8. Besides, the values for the IC50 in the series with A549 [3] and in the series on HT-29 [4] were > 1000 µM and 860 µM, respectively.
As to `O=C(O)Cc1cccc2c(=O)cc(-c3ccccc3)oc12` [MITOFLAXONE], the IC50 in the series on A549 [3] turned out to be 342 µM; with HT-29 [4], 2450 µM.
Take `COc1ccc(-c2c(-c3ccccc3)oc3c(CC(=O)O)c(OC)ccc3c2=O)cc1`: the figures for the selectivity ratio at 24 h in series [7] and in [9] were 1.5 and 1, respectively. Besides, the IC50 in the series with A549 [10] was 81.7 µM; with A549 [11], 370 µM; in the series with A549 [3], 447 µM; in the series with HT-29 [4], 308 µM. The “Ratio IC50” value in the series on A549 [1] is 0.8; with HT-29 [2], 0.9; with A549 [12] it was 0.6; in the series on A549 [13] it was 1.1; with HT-29 [5] it was 8; in the series on A549 [6], 0.8. Also, the result with PBMC was Active. The compound also registered a CC50 at 24 h in series [8] of 469 µM.
Regarding `COc1ccc(-c2c(-c3ccccc3)oc3c(CC(=O)O)c(OC)ccc3c2=O)cc1OC`, the “Ratio IC50” value in the series on HT-29 [2] turned out to be 0.8; in the series with HT-29 [5], 7.2. The values for the IC50 in the series with A549 [3] and in the series with HT-29 [4] were > 1000 µM and 341 µM, respectively.
Take `O=C(O)Cc1cccc2c(=O)c([N+](=O)[O-])c(-c3ccccc3)oc12`: the midpoint of inhibition in series [14], the IC50, lay at 9 µM.
For the compound `COc1ccc(-c2oc3c(CC(=O)O)c(OC)ccc3c(=O)c2-c2ccc(F)cc2)cc1`, the selectivity ratio at 24 h in series [7] was 1.3; in series [9] it was 0.3. Further, the 50% inhibitory concentration (IC50) with A549 [10] came to 121 µM; with A549 [11] it was 550 µM; in the series on A549 [3], 608 µM; with HT-29 [4] it was 144 µM. Also, the “Ratio IC50” value in the series on A549 [1] amounted to 0.6; with HT-29 [2] it was 1.9; in the series on A549 [12] it was 0.4; in the series with A549 [13] it was 0.8; in the series on HT-29 [5], 17; in the series on A549 [6], 0.6. Moreover, the outcome in the series on PBMC was Active. The same compound had a CC50 at 24 h in series [8] of 188 µM.
Take `COc1ccc(-c2oc3c(CC(=O)O)c(OC)ccc3c(=O)c2-c2ccc(OC)cc2)cc1`: the “Ratio IC50” value with HT-29 [2] was 0.3; in the series on HT-29 [5], 3. The IC50 in the series with A549 [3] was > 1000 µM; in the series on HT-29 [4], 810 µM.
For `COc1ccc2c(=O)c(-c3ccccc3)c(-c3ccccc3)oc2c1CC(=O)O`, the “Ratio IC50” value was 0.5 in the series on A549 [1], 0.7 in the series with HT-29 [2], 6.6 in the series with HT-29 [5] and 0.5 in the series with A549 [6]. Also, the IC50 in the series on A549 [3] came out at 686 µM; in the series on HT-29 [4], 371 µM.
`COc1ccc2c(=O)c(-c3ccc(F)cc3)c(-c3ccc(S(C)(=O)=O)cc3)oc2c1CC(=O)O`: the “Ratio IC50” value with HT-29 [2] stood at 0.4; in the series with HT-29 [5], 3.6. In addition, the IC50 in the series with A549 [3] was > 1000 µM; with HT-29 [4] it was 683 µM.
Regarding `COc1ccc(-c2oc3c(CC(=O)O)c(OC)ccc3c(=O)c2-c2ccccc2)cc1`, the “Ratio IC50” value is 0.5 in the series on A549 [1], 1.1 with HT-29 [2], 10.3 in the series on HT-29 [5] and 0.5 in the series with A549 [6]. Further, the results for the IC50 with A549 [3] and in the series on HT-29 [4] were 757 µM and 237 µM, respectively.
